Measurements published in patent publication US8716294B2, “Methods for treating inflammatory conditions” (Melior Discovery, Inc., priority 2006, dated 2014).

Key:
Assay type in all cases: in vivo
[1] = tested on: ICR:CD1 male mice; test: Oxazolone contact hypersensitivity (contact dermatitis), ear redness and thickness; conditions: all three doses (10, 30, 100 mg/kg)
Procedure: Contact Hypersensitivity (Contact Dermatitis). Contact hypersensitivity (CHS)^3 is a T cell-mediated cutaneous immune/inflammatory reaction to haptens. Oxazolone can be used to evoke a contact hypersensitivity reaction and produce an animal model of contact dermatitis. Tenilsetam was assessed for its ability to affect oxazolone mediated contact dermatitis reaction.
Materials and Methods. ICR:CD1 male mice (Harlan) 12 to 13 weeks of age were used for this study. Animals were kept on a 12 hr light dark cycle and fed ad libitum.
Oxazolone sensitization. Mice were exposed to 50 μL of 3% oxazolone (in 100% ethanol) via topical application to the skin of the abdomen. Additional exposure was via the 4 paws with a small amount of oxazolone.
Oxazolone challenge. On day 5, both ears of mice were exposed to 1% oxazolone (20 μL per ear; 10 μL/side of ear).
Analysis. On day 6, ears were scored for redness on a 0-3 scoring basis and were measured for thickness using a micrometer. These values were recorded, group values were averaged and statistical differences determined by ANOVA followed by a Mann-Whitney U-test (for visual score) or by Tukey's test (for ear thickness). A p value of less than 0.05 was used to indicate statistical significance.
For this study, there were 5 groups: vehicle, and tenilsetam at 3 dose levels: 10, 30 and 100 mg/kg. In addition, there was a dexamethasone group. […]

[2] = tested on: TNFα; test: Lipopolysaccharide general inflammation / septic shock model, TNFα by ELISA; conditions: mice, LPS 0.25 mg/kg ip, blood 90 minutes after LPS; doses of 10 and 30 mg/kg, given 15 minutes prior to LPS; FIG. 3
Source text: Lipopolysaccharide General Inflammation. Bolus injection of lethal or sublethal doses of lipopolysaccharide (LPS; the major component of bacterial cell wall) results in the rapid and transient rise in tumor necrosis factor (TNFα) levels in serum in mammals. This animal model was developed to mirror certain aspects of septic shock in humans. This model is also an effective first-line general inflammation model and may be used to determine the anti-inflammatory potential of test compounds.
Materials and methods. Male ICR:CD1 mice (Harlan Sprague Dawley, Indianapolis, Ind.) 9 to 10 weeks of age were housed three per cage, kept on a standard 12 hr light cycle and fed western (high-fat) diet for 5.5 weeks for these studies. Mice were provided food and water ad libitum.
Lipopolysaccharide (heat killed E. coli 0127:B5; SigmaAldrich) was prepared in water at a concentration of 0.025 mg/ml. LPS was dosed at a volume of 10 ml/kg (ip) to produce a final dose of 0.25 mg/kg or 7.5 μg/mouse. […] Plasma was prepared from blood and TNFα levels determined by ELISA as described below.
Serum TNFα levels were determined using the OptEIA™ mouse TNFα ELISA kit (BD Biosciences) as per directions of the manufacturer. Data were averaged and analyzed by ANOVA followed by a post-hoc Tukey's test with a p value of less then 0.05 indicating a statistical difference. […]

[3] = tested on: ICR:CD1 male mice; test: Delayed-type hypersensitivity (DTH), sheep red blood cell challenge, footpad swelling; conditions: SRBC challenge into footpad, all three doses (10, 30, 100 mg/kg)
Procedure: In this study, tenilsetam was assessed for its ability to affect the delayed-type hypersensitivity (DTH) reactions. DTH reactions are antigen-specific cell-mediated immune responses that can mediate harmful (e.g., allergic dermatitis and autoimmunity) aspects of immune function. The immune reaction induced by the method described below is characterized by swelling at the site of challenge and by an infiltration of monocytes/macrophages and lymphocytes into the epidermis and dermis. This model for skin DTH reactions has been used widely to monitor cell-mediated immune responses in vivo. […] (dexamethasone), a steroid anti-inflammatory, reduces cell-mediated immune responses and was employed to pharmacologically validate the assay.
Materials and Methods. ICR:CD1 male mice (Harlan) 12 to 13 weeks of age were used for this study. Animals were kept on a 12 hr light dark cycle and fed ad libitum. On day 1 of the study, mice were injected IV with 1×10^6 of washed sheep red blood cells in a volume of 200 μL. Mice were administered tenilsetam on day 6. […]
On day 7, mice were re-administered drug as above. Footpad thickness of both the back right and back left foot pads was measured using a digital micrometer. […]
Data are expressed as the average±SEM. Data were averaged and analyzed by ANOVA followed by a post-hoc Tukey's test with a p value of less then 0.05 indicating a statistical difference. […]

## O=C1NCCNC1c1cccs1 (racemic) [Tenilsetam, (+/−)-3-(2-thienyl)-2-piperazinone]
[1]; day 6, 0-3 redness score, FIG. 2A
  ear swelling after oxazolone challenge, visual scoring: significantly decreased
[1]; day 6, micrometer, FIG. 2B
  ear swelling after oxazolone challenge, ear thickness measurements: significantly decreased
[2]
  TNFα levels: decreased
[3]
  foot swelling by visual examination: significantly decreased
[3]; FIG. 1
  foot swelling as measured using a micrometer: significantly decreased
